The values that follow come from ChEMBL document CHEMBL1201862, “PubChem BioAssay data set” (2004).

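Method: 48-hour compound exposure of cells in 96-well plates, five concentrations, linear interpolation of endpoints. GI50 marks 50% less growth.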 The source made the active and inactive calls. Rule as the data show it: active = GI50 up to about 1.1 µM and inactive = higher.

Holding throughout (experiment): DTP human tumour cell line panel, 48 h
Test [1] concerns A549.
The subject of test [2] is ACHN.
The test system of test [3] is CCRF-CEM.
For test [4], the system named is COLO 205.
The subject of test [5] is EKVX.
For test [6], the system named is HCC 2998.
The subject of test [7] is HCT-116.
Test [8] has as its system K562.
Test [9] has as its system LOX IMVI.
The subject of test [10] is MOLT-4.
Test [11] relates to SF-295.
The subject of test [12] is SF-539.
Test [13] deals with SK-OV-3.
Test [14] has as its system SNB-19.
For test [15], the system named is SNB-75.
Test [16] concerns TK-10.
The test system of test [17] is U-251.
Test [18] has as its system UO-31.
The test system of test [19] is RPMI-8226.
The test system of test [20] is RXF 393.

What is called GI50 is the concentration that inhibits growth by half. As for `CCCC/C=C1\CCC(CN2CCCC2)C1=O` (stereo not given), the GI50 was 18.5 µM (inactive) in test [1]; 6.46 µM (inactive) in [2]; 3.5 µM (inactive) in [3]; 12.9 µM (inactive) in [4]; 3.98 µM (inactive) in test [5]; 18.7 µM (inactive) in test [6]. Further, the GI50 is 14.3 µM (inactive) in test [7]; 2.71 µM (inactive) in test [8]; 8.09 µM (inactive) in test [9]; 3.57 µM (inactive) in test [10]; 18.1 µM (inactive) in [11]; 16.1 µM (inactive) in [12]. Further, the GI50 in test [13] was 28.5 µM (inactive); in [14] it was 21.8 µM (inactive); in [15], 18.4 µM (inactive); in test [16], 2.59 µM (inactive); in [17], 6.75 µM (inactive); in [18] it was 17.2 µM (inactive).
For `CSc1ncc2c(n1)-c1ccccc1OC2N1CCCCC1` (stereo not given), the GI50 in test [1] was 39.4 µM (inactive); in test [2], 37.1 µM (inactive); in test [3], 20.6 µM (inactive); in [4], 44.8 µM (inactive); in [5], 35.2 µM (inactive); in test [7] it was 31 µM (inactive). Also, the GI50 is 29.5 µM (inactive) in [8]; 21.1 µM (inactive) in test [9]; 20.2 µM (inactive) in test [10]; 24.4 µM (inactive) in test [19]; 32.1 µM (inactive) in test [20]; 38.5 µM (inactive) in test [11]. The GI50 is 51.9 µM (inactive) in test [12]; > 100 µM (inactive) in [13]; 68.7 µM (inactive) in [14]; 66.5 µM (inactive) in [15]; 27.3 µM (inactive) in test [16]; 39 µM (inactive) in [17]. Further, in test [18], the GI50 was 32.5 µM (inactive).
As to `CN1CN(c2ccccc2)C2(CCN(C3Nc4ccccc4O3)CC2)C1=O` (stereo not given), the GI50 in [1] was 27.3 µM (inactive); in test [2], 22 µM (inactive); in [3] it was 13.2 µM (inactive); in test [4] it was 16.3 µM (inactive); in [7], 16.2 µM (inactive); in [8], 18.5 µM (inactive). Besides, the GI50 in [9] is 13.6 µM (inactive); in [10], 9.57 µM (inactive); in test [19], 11.7 µM (inactive); in test [20] it was 14.5 µM (inactive); in [11] it was 16.6 µM (inactive); in test [12], 15.1 µM (inactive). Further, the GI50 was 19.6 µM (inactive) in test [13]; 23.7 µM (inactive) in [14]; 20.9 µM (inactive) in test [15]; 11.1 µM (inactive) in test [16]; 18.2 µM (inactive) in [17]; 27.5 µM (inactive) in test [18].
`COC(=O)CC(c1cn(S(=O)(=O)c2ccc(C)cc2)c2ccccc12)C1C[C@@H](C(=O)OC)N(C(=O)OC(C)(C)C)C1=O` (stereo not given in full): the GI50 in test [1] was 27 µM (inactive); in test [2], 12.5 µM (inactive); in [3] it was 9.18 µM (inactive); in test [4] it was 26.7 µM (inactive); in test [5] it was > 100 µM (inactive); in [7] it was 14.9 µM (inactive). The GI50 in test [8] is 54.1 µM (inactive); in test [9], 20.8 µM (inactive); in [10], 3.91 µM (inactive); in test [19] it was 8.77 µM (inactive); in test [20], 9.79 µM (inactive); in test [11], 20.9 µM (inactive). Moreover, the GI50 was 7.66 µM (inactive) in test [12]; > 100 µM (inactive) in [14]; 64.1 µM (inactive) in [15]; > 100 µM (inactive) in test [16]; 33.9 µM (inactive) in test [17]; 45.6 µM (inactive) in [18].
For `Cc1ccc(S(=O)(=O)NC(=O)NCCC(=O)O)cc1`, the GI50 in test [1], in test [2], in test [3], in [4], in test [7] and in test [8] was > 100 µM (inactive) in each case. Moreover, the GI50 in [9], in [10], in [19], in [20], in [11] and in [12] was > 100 µM (inactive) throughout. Further, the GI50 in test [13], in [14], in [15], in test [16], in test [17] and in test [18] was > 100 µM (inactive) throughout.
For `Cc1nc(O)nc(CC(O)(c2ccccc2)c2ccccc2)c1-c1ccccc1`, the GI50 in [1], in test [2], in test [3], in test [4], in test [5] and in test [6] was > 100 µM (inactive) in each case. The GI50 in test [7], in test [8], in [9], in [10], in test [20] and in test [11] was > 100 µM (inactive) each time. In addition, the GI50 was > 100 µM (inactive) in test [12]; > 100 µM (inactive) in [13]; > 100 µM (inactive) in test [14]; 52.6 µM (inactive) in test [15]; > 100 µM (inactive) in test [16]; > 100 µM (inactive) in test [17]. The GI50 in test [18] was 50.1 µM (inactive).
On to `N#CC1=C(N)Oc2c(ccc3cccnc23)C1c1ccccc1` (stereo not given), for which the 50% growth inhibitory concentration (GI50) in [1] is 0.738 µM (active); in [2], 10.4 µM (inactive); in [3] it was 1.44 µM (inactive); in [4] it was 1.24 µM (inactive); in test [5], 4.78 µM (inactive); in test [6], 4.69 µM (inactive). Moreover, the GI50 in [7] is 0.562 µM (active); in [8], 0.396 µM (active); in test [9], 1.34 µM (inactive); in test [10], 0.667 µM (active); in [20], 2.13 µM (inactive); in test [11] it was 0.515 µM (active). The GI50 was 1.25 µM (inactive) in test [12]; 0.731 µM (active) in test [13]; 5.3 µM (inactive) in [14]; 0.731 µM (active) in test [15]; 3.9 µM (inactive) in test [16]; 0.908 µM (active) in test [17]. For the same compound, the GI50 in [18] is 4.46 µM (inactive).
`c1ccc2c(c1)Sc1ccccc1N2CCCN1c2ccccc2Sc2ccccc21`: the GI50 is > 100 µM (inactive) in test [1]; 39.1 µM (inactive) in test [2]; 52.6 µM (inactive) in test [4]; > 100 µM (inactive) in test [5]; > 100 µM (inactive) in [6]; 55.5 µM (inactive) in [7]. For the same compound, the GI50 is > 100 µM (inactive) in test [8]; > 100 µM (inactive) in test [9]; 76.4 µM (inactive) in test [10]; 78.5 µM (inactive) in [20]; > 100 µM (inactive) in test [11]; > 100 µM (inactive) in test [12]. The GI50 in [13] was > 100 µM (inactive); in [14] it was > 100 µM (inactive); in test [16] it was > 100 µM (inactive); in test [17], 45.9 µM (inactive); in test [18], > 100 µM (inactive).
For `C[C@H](CCCOS(C)(=O)=O)[C@H]1CC[C@H]2[C@@H]3CC[C@@H]4C[C@H](OS(C)(=O)=O)CC[C@]4(C)[C@H]3CC[C@]12C`, the GI50 is 17 µM (inactive) in test [1]; 15.6 µM (inactive) in test [2]; > 100 µM (inactive) in test [3]; > 100 µM (inactive) in [4]; 28.2 µM (inactive) in [5]; 29.5 µM (inactive) in test [7]. The GI50 in [8] was > 100 µM (inactive); in test [9] it was 31.7 µM (inactive); in test [10], > 100 µM (inactive); in [19], 17.1 µM (inactive); in [20], 52 µM (inactive); in test [11] it was 37.5 µM (inactive). Moreover, the GI50 in test [12] is 21 µM (inactive); in [13], 20.3 µM (inactive); in test [14], 27.5 µM (inactive); in test [15], 31.8 µM (inactive); in test [16] it was 15.7 µM (inactive); in test [17], 15.9 µM (inactive). In addition, the GI50 in test [18] was 34 µM (inactive).
Regarding `Cc1ccc(S(=O)(=O)CC2(Br)CCc3ccccc3C2=O)cc1` (stereo not given), the GI50 in [1] is 45.3 µM (inactive); in test [2], 19.8 µM (inactive); in [4], 18.1 µM (inactive); in test [5], 43.1 µM (inactive); in test [7] it was 47.1 µM (inactive); in [8], 5.89 µM (inactive). Besides, the GI50 was 32 µM (inactive) in [9]; 2.86 µM (inactive) in test [10]; 38.1 µM (inactive) in [19]; 18.1 µM (inactive) in [20]; 77.8 µM (inactive) in test [11]; 33.7 µM (inactive) in [12]. Moreover, the GI50 in test [13] is 39.7 µM (inactive); in [14] it was 41.9 µM (inactive); in test [15], 29.9 µM (inactive); in test [16], 33 µM (inactive); in test [17], 21.4 µM (inactive); in test [18], 14.8 µM (inactive).
As to `O=C1C(O)=C(C(CCc2ccccc2)C2=C(O)C(=O)c3ccccc3C2=O)C(=O)c2ccccc21`, the GI50 in [1] was 33 µM (inactive); in [2], 65.9 µM (inactive); in test [3] it was 37.9 µM (inactive); in test [4] it was 28.4 µM (inactive); in [5], 61.1 µM (inactive); in [7], 40 µM (inactive). Besides, the GI50 in test [9] is 5.26 µM (inactive); in test [19], 16.1 µM (inactive); in test [20], > 100 µM (inactive); in test [11], 6.11 µM (inactive); in test [12], 58.5 µM (inactive); in test [13], > 100 µM (inactive). The GI50 in test [14] was > 100 µM (inactive); in [15], 45.8 µM (inactive); in test [16], > 100 µM (inactive); in test [17] it was 45.6 µM (inactive); in test [18], > 100 µM (inactive).
